According to paper PMC10821600 (The Journal of Biological Chemistry, 2023):
Where two headings read alike, the source gives them in different places. No end group written: not given here.

Legend:
human NaV1.7 = human NaV1.7 (Homo sapiens, UniProt Q15858); experiment: cell-based; details: SEM
human NaV1.8 = human NaV1.8 (Homo sapiens, UniProt Q9Y5Y9); experiment: cell-based
human NaV1.9 = human NaV1.9 (Homo sapiens, UniProt Q9UI33); experiment: cell-based
mouse NaV1.7 = mouse NaV1.7 (Mus musculus, UniProt Q62205); experiment: cell-based; details: SEM
human NaV1.6 = human NaV1.6 (Homo sapiens, UniProt Q9UQD0); experiment: cell-based; details: SEM
blowflies (L. caesar) = tested on: blowflies (L. caesar); design: species or system Lucilia caesar; details: in vivo
HEK293 cells = details: 1 h
C57BL/6J mice = details: mouse, in vivo
human erythrocytes = details: red cells of human, 1 h

Chain of human NaV1.9 (Q9UI33 whole entry): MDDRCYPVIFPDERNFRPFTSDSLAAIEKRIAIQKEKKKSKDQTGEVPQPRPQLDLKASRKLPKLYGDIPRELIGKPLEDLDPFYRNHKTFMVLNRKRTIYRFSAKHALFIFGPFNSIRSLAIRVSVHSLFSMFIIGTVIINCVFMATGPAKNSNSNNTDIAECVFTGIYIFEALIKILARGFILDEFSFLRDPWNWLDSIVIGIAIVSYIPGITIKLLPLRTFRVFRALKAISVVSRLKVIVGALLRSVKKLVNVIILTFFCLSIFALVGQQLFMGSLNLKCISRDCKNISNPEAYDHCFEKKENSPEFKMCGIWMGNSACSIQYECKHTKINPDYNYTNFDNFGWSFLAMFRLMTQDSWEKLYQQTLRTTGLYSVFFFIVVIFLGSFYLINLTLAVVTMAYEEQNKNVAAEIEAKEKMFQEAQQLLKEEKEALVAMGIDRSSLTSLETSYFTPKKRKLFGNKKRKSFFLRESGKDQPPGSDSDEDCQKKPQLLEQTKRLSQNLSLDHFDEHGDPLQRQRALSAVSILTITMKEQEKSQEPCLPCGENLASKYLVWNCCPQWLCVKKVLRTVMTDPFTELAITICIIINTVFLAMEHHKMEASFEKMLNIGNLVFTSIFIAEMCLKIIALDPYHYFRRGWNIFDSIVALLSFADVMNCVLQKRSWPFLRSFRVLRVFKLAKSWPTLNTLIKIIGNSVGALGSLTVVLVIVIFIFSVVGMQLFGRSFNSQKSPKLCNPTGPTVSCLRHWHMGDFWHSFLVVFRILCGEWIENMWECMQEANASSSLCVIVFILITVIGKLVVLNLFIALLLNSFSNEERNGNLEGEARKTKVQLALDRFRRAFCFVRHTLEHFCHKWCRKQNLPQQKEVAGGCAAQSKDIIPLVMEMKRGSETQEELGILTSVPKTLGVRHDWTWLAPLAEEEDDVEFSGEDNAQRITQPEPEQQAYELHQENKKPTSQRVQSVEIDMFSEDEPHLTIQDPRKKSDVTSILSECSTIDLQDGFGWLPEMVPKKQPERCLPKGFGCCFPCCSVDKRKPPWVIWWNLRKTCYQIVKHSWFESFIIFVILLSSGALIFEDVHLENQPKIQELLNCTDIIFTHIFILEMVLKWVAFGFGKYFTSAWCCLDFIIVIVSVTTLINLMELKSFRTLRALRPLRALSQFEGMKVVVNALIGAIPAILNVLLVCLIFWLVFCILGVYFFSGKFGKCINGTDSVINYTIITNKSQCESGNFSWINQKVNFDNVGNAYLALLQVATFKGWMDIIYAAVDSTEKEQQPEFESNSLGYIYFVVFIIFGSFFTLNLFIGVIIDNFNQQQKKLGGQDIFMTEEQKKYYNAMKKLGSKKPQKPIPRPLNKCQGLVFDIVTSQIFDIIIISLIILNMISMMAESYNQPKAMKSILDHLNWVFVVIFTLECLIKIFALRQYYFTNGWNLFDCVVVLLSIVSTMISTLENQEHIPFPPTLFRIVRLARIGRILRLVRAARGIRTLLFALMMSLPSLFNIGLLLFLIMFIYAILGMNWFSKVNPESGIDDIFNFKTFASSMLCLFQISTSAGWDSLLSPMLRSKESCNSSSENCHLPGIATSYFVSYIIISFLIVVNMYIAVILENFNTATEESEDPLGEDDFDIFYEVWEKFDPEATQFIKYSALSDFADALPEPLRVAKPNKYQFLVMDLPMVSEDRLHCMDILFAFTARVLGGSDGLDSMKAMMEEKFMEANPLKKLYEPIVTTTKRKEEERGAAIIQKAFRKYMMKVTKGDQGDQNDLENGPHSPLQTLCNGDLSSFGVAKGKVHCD
Chain of human NaV1.6 (Q07699 19-218): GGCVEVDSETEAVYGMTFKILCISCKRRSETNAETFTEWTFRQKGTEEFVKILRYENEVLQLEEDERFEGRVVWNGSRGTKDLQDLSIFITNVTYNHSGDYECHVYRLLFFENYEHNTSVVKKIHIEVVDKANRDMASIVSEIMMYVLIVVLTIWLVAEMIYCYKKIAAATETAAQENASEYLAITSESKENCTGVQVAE
Chain of human NaV1.6 (Q9UQD0 whole entry): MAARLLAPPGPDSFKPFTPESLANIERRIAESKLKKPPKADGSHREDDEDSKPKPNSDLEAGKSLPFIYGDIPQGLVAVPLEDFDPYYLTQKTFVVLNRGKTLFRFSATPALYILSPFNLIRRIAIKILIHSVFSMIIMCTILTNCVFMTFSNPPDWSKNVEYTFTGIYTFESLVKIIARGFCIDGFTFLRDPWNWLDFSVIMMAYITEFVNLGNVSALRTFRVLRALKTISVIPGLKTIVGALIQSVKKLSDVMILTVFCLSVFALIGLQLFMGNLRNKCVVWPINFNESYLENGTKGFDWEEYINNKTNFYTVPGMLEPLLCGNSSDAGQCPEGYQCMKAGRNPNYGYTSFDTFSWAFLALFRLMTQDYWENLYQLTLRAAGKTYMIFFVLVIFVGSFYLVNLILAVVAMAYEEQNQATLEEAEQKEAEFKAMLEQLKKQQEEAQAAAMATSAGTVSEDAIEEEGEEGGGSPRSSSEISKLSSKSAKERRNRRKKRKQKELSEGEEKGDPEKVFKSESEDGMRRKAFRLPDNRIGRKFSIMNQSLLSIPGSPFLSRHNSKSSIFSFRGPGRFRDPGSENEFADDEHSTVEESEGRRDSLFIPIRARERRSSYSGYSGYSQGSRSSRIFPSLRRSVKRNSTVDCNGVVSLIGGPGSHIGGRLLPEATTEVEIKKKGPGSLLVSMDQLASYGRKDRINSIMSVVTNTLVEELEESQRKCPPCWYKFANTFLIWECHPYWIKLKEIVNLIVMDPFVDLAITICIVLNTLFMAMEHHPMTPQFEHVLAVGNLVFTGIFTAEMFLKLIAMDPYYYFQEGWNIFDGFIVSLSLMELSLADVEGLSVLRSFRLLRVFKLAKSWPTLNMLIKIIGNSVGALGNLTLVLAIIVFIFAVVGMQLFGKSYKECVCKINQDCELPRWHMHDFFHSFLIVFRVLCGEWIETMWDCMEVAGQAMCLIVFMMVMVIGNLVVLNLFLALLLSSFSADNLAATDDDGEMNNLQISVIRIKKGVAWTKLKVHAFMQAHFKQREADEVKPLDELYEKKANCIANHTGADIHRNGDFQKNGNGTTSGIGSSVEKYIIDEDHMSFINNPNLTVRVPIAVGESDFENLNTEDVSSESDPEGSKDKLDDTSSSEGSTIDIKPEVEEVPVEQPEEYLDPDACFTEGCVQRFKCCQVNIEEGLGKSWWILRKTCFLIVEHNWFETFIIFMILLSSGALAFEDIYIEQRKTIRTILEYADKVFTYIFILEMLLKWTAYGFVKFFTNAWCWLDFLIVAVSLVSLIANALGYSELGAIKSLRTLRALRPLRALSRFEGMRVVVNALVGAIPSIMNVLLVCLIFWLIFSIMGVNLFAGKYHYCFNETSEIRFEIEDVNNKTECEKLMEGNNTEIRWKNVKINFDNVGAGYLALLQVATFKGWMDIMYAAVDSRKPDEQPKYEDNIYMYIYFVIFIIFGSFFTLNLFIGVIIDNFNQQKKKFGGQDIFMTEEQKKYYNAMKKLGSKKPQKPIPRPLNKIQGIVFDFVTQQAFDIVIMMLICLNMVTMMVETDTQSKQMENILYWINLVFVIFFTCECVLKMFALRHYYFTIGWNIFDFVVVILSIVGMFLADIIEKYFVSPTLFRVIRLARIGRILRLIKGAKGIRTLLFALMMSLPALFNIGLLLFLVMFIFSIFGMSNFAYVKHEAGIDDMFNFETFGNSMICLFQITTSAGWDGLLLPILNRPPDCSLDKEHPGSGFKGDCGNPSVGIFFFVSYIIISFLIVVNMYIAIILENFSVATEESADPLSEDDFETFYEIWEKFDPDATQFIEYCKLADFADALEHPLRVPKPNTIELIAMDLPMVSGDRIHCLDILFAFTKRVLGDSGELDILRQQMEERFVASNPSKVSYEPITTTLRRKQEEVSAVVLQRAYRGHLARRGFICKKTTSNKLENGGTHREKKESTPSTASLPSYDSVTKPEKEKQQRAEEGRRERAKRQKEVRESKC

Substance	EC50 (human NaV1.7)	EC50 (human NaV1.8; SEM)	EC50 (human NaV1.9)	EC50 (mouse NaV1.7)	EC50 (human NaV1.6)	kind of paralysis in blowflies (blowflies (L. caesar))	reversibility of paralysis in blowflies (blowflies (L. caesar))	median paralytic dose PD50[1 h] (blowflies (L. caesar); SEM)	median cytotoxic concentration (CC50) (HEK293 cells)	spontaneous nocifensive behaviors in mice (C57BL/6J mice)	median hemolytic concentration (HC50) (human erythrocytes)	EC50 (human NaV1.8)
ALPALPLLMFLFTLPALQHWIEKNWIN-NH2 [Pm2a]	154 ± 17 nM	2600 ± 700 nM	< 1000 nM	102 ± 18 nM	176 ± 56 nM							
GIFSALKTLGKILLPVILPTVAEKIKEKV-NH2 [Pm6a]						rapid paralysis	irreversible	9.9 ± 0.4 nmol/g	465 ± 359 nM	did not cause nociception in mice	618 ± 148 nM	
GLPLLALLFSLPVLQHWIEKNWIN-NH2 [Pm1a]	403 ± 96 nM		> 1000 nM	352 ± 58 nM	285 ± 47 nM							> 10000 nM
